Assay results reported in patent publication US11077106B2, “Cancer treatment” (Janssen Pharmaceutica NV, priority 2017, dated 2021).
Like-named read-outs stand apart in the source and are kept apart here.

Key:
[1] = test system: metastatic or surgically unresectable urothelial cancer harboring select FGFR genetic alterations
Method: Assessments of tumor responses as reported herein were performed according to Response Evaluation Criteria in Solid Tumors (RECIST) version 1.1.
Included patients were adults with measurable urothelial cancer per Response Evaluation Criteria in Solid Tumors version 1.1.
Patients were required to have at least 1 FGFR2/FGFR3 mutation or fusion per central lab testing of RNA from formalin-fixed, paraffin-embedded tumor samples, using a custom assay.
Patients had progressed during or following at least 1 line of prior systemic chemotherapy or less than 12 months of neoadjuvant or adjuvant chemotherapy.
The primary end point of this ongoing study is Objective Response Rate to the selected regimen (Regimen 3).
Secondary end points include progression-free survival (PFS), duration of response (DoR), Overall Survival, safety, predictive biomarker evaluation, and pharmacokinetics.
Patients were assessed for efficacy using radiographic imaging performed within 30 days of screening, once every 6 weeks for the first 3 months, once every 12 weeks for the next 9 months, then once every 4 to 6 months until disease progression. Tumor responses were assessed by investigators according to RECIST version 1.1 (Eisenhauer E A et al., Eur J Cancer, 2009, 45(2), 228-247).

[2] = test system: subjects with metastatic or surgically unresectable urothelial cancer
Method: The study comprises a Screening Phase (molecular screening at any time prior to first dose and study screening within 30 days of first dose), a treatment phase, and a post-treatment follow-up phase. The treatment phase comprises the period from first dose until the end-of-treatment visit. The follow-up phase will extend until the subject has died, withdraws consent, is lost to follow-up, or the end of study, whichever comes first. Study treatment is administered on 28-day cycles. Prior to interim analysis 1, there were 2 treatment regimens.
Safety was assessed continuously by the investigator and based on medical review of AE reports and the results of vital sign measurements, physical examinations, clinical laboratory tests, ECOG performance status, and other safety evaluations.

[3] = Regimen 1, 10 mg intermittent dose (n = 33)
[4] = Regimen 2, 6 mg continuous dose (n = 78)
[5] = Regimen 3, 8 mg continuous dose (n = 59)
[6] = Any grade, Regimen 2, 6 mg continuous dose (n = 78)
[7] = Any grade, Regimen 3, 8 mg continuous dose (n = 96)
[8] = Grade ≥ 3, Regimen 1, 10 mg intermittent dose (n = 33)
[9] = Grade ≥ 3, Regimen 2, 6 mg continuous dose (n = 78)
[10] = Grade ≥ 3, Regimen 3, 8 mg continuous dose (n = 96)

SMILES: COc1cc(OC)cc(N(CCNC(C)C)c2ccc3ncc(-c4cnn(C)c4)nc3c2)c1 [erdafitinib, N-(3,5-dimethoxyphenyl)-N′-(1-methylethyl)-N-[3-(1-methyl-1H-pyrazol-4-y)quinoxalin-6-yl]ethane-1,2-diamine]
- patients with reduction in the sum of target lesion diameters ([1]; 8 mg/d continuous erdafitinib (Regimen 3), 44/59 patients): 75%
- Complete response [1, 3]: 2 (6) n (%)
- Disease control rate, confirmed, n (%) [1, 3]: 24 (73) n (%)
- ORR, confirmed, n (%) [1, 3]: 8 (24) n (%)
- Partial response [1, 3]: 6 (18) n (%)
- Progression-free survival, median, months [1, 3]: 4.0 months
- Stable disease [1, 3]: 16 (49) n (%)
- Complete response [1, 4]: 2 (3) n (%)
- Disease control rate, confirmed, n (%) [1, 4]: 57 (73) n (%)
- ORR, confirmed, n (%) [1, 4]: 27 (35) n (%)
- Partial response [1, 4]: 25 (32) n (%)
- Progression-free survival, median, months [1, 4]: 5.1 months
- Stable disease [1, 4]: 30 (39) n (%)
- Complete response [1, 5]: 3 (5) n (%)
- Disease control rate, confirmed, n (%) [1, 5]: 48 (81) n (%)
- ORR, confirmed, n (%) [1, 5]: 25 (42) n (%)
- Partial response [1, 5]: 22 (37) n (%)
- Progression-free survival, median, months [1, 5]: 5.6 months
- Stable disease [1, 5]: 23 (39) n (%)
- Median Progression Free Survival ([1]; across all dose regimens): 5.1 months
- confirmed Objective Response Rate ([1]; across all dose regimens (n = 170), 95% CI, 28%-43%): 35%
- confirmed disease control rate ([1]; among all patients (n = 170)): 76%
- response to treatment in relation to number of prior lines of treatment ([1]; chemo-naïve, one prior line, or two or more prior lines of chemotherapy): independent of the number of prior lines treatment
- median time to response ([1]; subset of 59 patients on Regimen 3): 1.41 months
- TRAE: Alopecia [2, 6]: 7 (9) n (%)
- TRAE: Asthenia [2, 6]: 12 (15) n (%)
- TRAE: Decreased appetite [2, 6]: 18 (23) n (%)
- TRAE: Diarrhea [2, 6]: 34 (44) n (%)
- TRAE: Dry eye [2, 6]: 2 (3) n (%)
- TRAE: Dry mouth [2, 6]: 31 (40) n (%)
- TRAE: Dry skin [2, 6]: 17 (22) n (%)
- TRAE: Dysgeusia [2, 6]: 10 (13) n (%)
- TRAE: Fatigue [2, 6]: 14 (18) n (%)
- TRAE: Hyperphosphatemia [2, 6]: 48 (62) n (%)
- TRAE: Lacrimation increased [2, 6]: 11 (14) n (%)
- TRAE: Nail dystrophy [2, 6]: 7 (9) n (%)
- TRAE: Onycholysis [2, 6]: 13 (17) n (%)
- TRAE: Palmar-plantar erythrodysaesthesia syndrome [2, 6]: 12 (15) n (%)
- TRAE: Paronychia [2, 6]: 11 (14) n (%)
- TRAE: Stomatitis [2, 6]: 32 (41) n (%)
- TRAE: Vision blurred [2, 6]: 5 (6) n (%)
- TRAE: Alopecia [2, 7]: 22 (23) n (%)
- TRAE: Asthenia [2, 7]: 13 (14) n (%)
- TRAE: Decreased appetite [2, 7]: 23 (24) n (%)
- TRAE: Diarrhea [2, 7]: 40 (42) n (%)
- TRAE: Dry eye [2, 7]: 17 (18) n (%)
- TRAE: Dry mouth [2, 7]: 40 (42) n (%)
- TRAE: Dry skin [2, 7]: 26 (27) n (%)
- TRAE: Dysgeusia [2, 7]: 32 (33) n (%)
- TRAE: Fatigue [2, 7]: 19 (20) n (%)
- TRAE: Hyperphosphatemia [2, 7]: 66 (69) n (%)
- TRAE: Lacrimation increased [2, 7]: 8 (8) n (%)
- TRAE: Nail dystrophy [2, 7]: 12 (13) n (%)
- TRAE: Onycholysis [2, 7]: 10 (10) n (%)
- TRAE: Palmar-plantar erythrodysaesthesia syndrome [2, 7]: 15 (16) n (%)
- TRAE: Paronychia [2, 7]: 14 (15) n (%)
- TRAE: Stomatitis [2, 7]: 45 (47) n (%)
- TRAE: Vision blurred [2, 7]: 15 (16) n (%)
- TRAE: Alopecia [2, 8]: 0 n (%)
- TRAE: Asthenia [2, 8]: 2 (6) n (%)
- TRAE: Decreased appetite [2, 8]: 0 n (%)
- TRAE: Diarrhea [2, 8]: 1 (3) n (%)
- TRAE: Dry eye [2, 8]: 0 n (%)
- TRAE: Dry mouth [2, 8]: 0 n (%)
- TRAE: Dry skin [2, 8]: 0 n (%)
- TRAE: Dysgeusia [2, 8]: 0 n (%)
- TRAE: Fatigue [2, 8]: 0 n (%)
- TRAE: Hyperphosphatemia [2, 8]: 0 n (%)
- TRAE: Lacrimation increased [2, 8]: 0 n (%)
- TRAE: Nail dystrophy [2, 8]: 0 n (%)
- TRAE: Onycholysis [2, 8]: 0 n (%)
- TRAE: Palmar-plantar erythrodysaesthesia syndrome [2, 8]: 0 n (%)
- TRAE: Paronychia [2, 8]: 0 n (%)
- TRAE: Stomatitis [2, 8]: 1 (3) n (%)
- TRAE: Vision blurred [2, 8]: 0 n (%)
- TRAE: Alopecia [2, 9]: 0 n (%)
- TRAE: Asthenia [2, 9]: 4 (5) n (%)
- TRAE: Decreased appetite [2, 9]: 2 (3) n (%)
- TRAE: Diarrhea [2, 9]: 0 n (%)
- TRAE: Dry eye [2, 9]: 1 (1) n (%)
- TRAE: Dry mouth [2, 9]: 2 (3) n (%)
- TRAE: Dry skin [2, 9]: 0 n (%)
- TRAE: Dysgeusia [2, 9]: 0 n (%)
- TRAE: Fatigue [2, 9]: 1 (1) n (%)
- TRAE: Hyperphosphatemia [2, 9]: 0 n (%)
- TRAE: Lacrimation increased [2, 9]: 0 n (%)
- TRAE: Nail dystrophy [2, 9]: 0 n (%)
- TRAE: Onycholysis [2, 9]: 5 (6) n (%)
- TRAE: Palmar-plantar erythrodysaesthesia syndrome [2, 9]: 0 n (%)
- TRAE: Paronychia [2, 9]: 0 n (%)
- TRAE: Stomatitis [2, 9]: 7 (9) n (%)
- TRAE: Vision blurred [2, 9]: 1 (1) n (%)
- TRAE: Alopecia [2, 10]: 0 n (%)
- TRAE: Asthenia [2, 10]: 3 (3) n (%)
- TRAE: Decreased appetite [2, 10]: 0 n (%)
- TRAE: Diarrhea [2, 10]: 3 (3) n (%)
- TRAE: Dry eye [2, 10]: 0 n (%)
- TRAE: Dry mouth [2, 10]: 0 n (%)
- TRAE: Dry skin [2, 10]: 0 n (%)
- TRAE: Dysgeusia [2, 10]: 1 (1) n (%)
- TRAE: Fatigue [2, 10]: 1 (1) n (%)
- TRAE: Hyperphosphatemia [2, 10]: 2 (2) n (%)
- TRAE: Lacrimation increased [2, 10]: 0 n (%)
- TRAE: Nail dystrophy [2, 10]: 3 (3) n (%)
- TRAE: Onycholysis [2, 10]: 1 (1) n (%)
- TRAE: Palmar-plantar erythrodysaesthesia syndrome [2, 10]: 4 (4) n (%)
- TRAE: Paronychia [2, 10]: 3 (3) n (%)
- TRAE: Stomatitis [2, 10]: 8 (8) n (%)
- TRAE: Vision blurred [2, 10]: 0 n (%)
- patients discontinued as the result of TRAEs ([2]; across all dose regimens (22 patients)): 11%
- treatment-related deaths ([2]; across all dose regimens, safety population N=207): no treatment-related deaths
- patients reporting grade 4 TRAEs ([2]; across all dose regimens, safety population N=207 (n=1)): 0.5%
- patients reporting grade 3 TRAEs ([2]; across all dose regimens, safety population N=207 (n=69)): 33%
- patients reporting TRAEs ([2]; across all dose regimens, safety population N=207 (n=195)): 94%
- patients reporting retinopathy ([2]; across all dose regimens, grade 2 [n=1] and grade 3 [n=1]): 2 patients
